# Measurements reported in patent US20220031800A1, “PEPTIDES FOR TREATING NON-EXUDATIVE MACULAR DEGENERATION AND OTHER DISORDERS OF THE EYE” (Allegro Pharmaceuticals, LLC, priority 2019, published 2022).
# B1: ranibizumab (antibody, chains of the INN, looked up, V domains shown)
# VH: EVQLVESGGGLVQPGGSLRLSCAASGYDFTHYGMNWVRQAPGKGLEWVGWINTYTGEPTYAADFKRRFTFSLDTSKSTAYLQMNSLRAEDTAVYYCAKYPYYYGTSHWYFDVWGQGTLVTVSS
# VL: DIQLTQSPSSLSASVGDRVTITCSASQDISNYLNWYQQKPGKAPKVLIYFTSSLHSGVPSRFSGSGSGTDFTLTISSLQPEDFATYYCQQYSTVPWTFGQGTKVEIK
# notes: anti-VEGF agent
# Tests used:
# [1] = Trypan blue viability of human RPE cells (ARPE-19) exposed to hydrogen peroxide; format: cell-based; settings: human, ARPE-19 cells (human RPE cells); 100 μM H2O2 alone, 8 hours; read-out: Reduction of cell viability
# Description: Purpose: Investigate cytoprotective properties of risuteganib in human RPE cells (ARPE-19) exposed to hydrogen peroxide, which is a reactive oxygen species that can induce cell death at elevated levels. Methods: ARPE-19 cells were cultured in laminin-coated trans-wells for 2 weeks to induce differentiation. Cells were then exposed to the experimental conditions: […]
# [2] = system: primary human RPE cells; test: Mitochondrial membrane potential (JC-1) in primary human RPE cells exposed to hydroquinone; format: cell-based; settings: HQ 125-180 uM, 3-4 hours
# Description: (§1) Purpose: To determine if risuteganib protects against hydroquinone (HQ)-mediated cell injury, elevated ROS level and reduced mitochondrial membrane potential (Δψm) in cultured human RPE cells. Elevated ROS levels increase oxidative stress in the cells, leading to reduced cell health and cell death. Loss of ΔΨm is a marker for early cell death. Methods: Primary human RPE cells were seeded on collagen-coated 96-well plates in triplicates at 8K, 10K and […] cells/well, respectively. Cells reached 80% to 100% confluence 24 hours after plating, and confluent cells were then grown for an additional 4 or 5 days until growth was density arrested. On day 6 after plating, cells in the plate upper half were loaded with 20 μM CM-H2DCFDA (measures ROS level) and in the plate lower half with 10 μM JC-1 (measures Δψm) for 30 minutes at 37° C. […] For the ROS and Δψm assays, a fluorescence plate reader was used to quantify ROS production (490-nm excitation, 522-nm emission), and green monomer of JC-1 (490-nm excitation, 522-nm emission) and red JC-1 aggregate (535-nm excitation, 590-nm emission), respectively. […] The WST reagent was quantified with a plate reader at 440 nm and a reference wavelength at 690 nm. Data were normalized to untreated control as 100% and were expressed as the mean±SD.
# [3] = system: primary human RPE cells; test: WST-1 cell viability of primary human RPE cells exposed to hydroquinone; format: cell-based; settings: HQ 125-180 uM, 4 hours or 5 hours
# Description: as §1
# [4] = system: primary human RPE cells; test: ROS level (CM-H2DCFDA) in primary human RPE cells exposed to hydroquinone; format: cell-based; settings: HQ 125-180 uM, 3-4 hours
# Description: as §1
# [5] = Trypan blue viability of primary mouse Müller cells exposed to kainic acid; format: cell-based, CD1 mice; settings: CD1, mouse; 500 μM kainic acid alone, 48 hours; read-out: Reduction of Muller cell viability
# Source text: Purpose: Investigate neuroprotective properties of risuteganib in primary mouse Müller cells exposed to kainic acid, a neuroexcitatory compound that activates glutamate receptors, resulting in overstimulation and cell death. Retinal Müller cells support normal functions of neurons and their dysregulation can leads to loss of homeostasis and neuronal cell death.
# Methods: Fresh retina were collected from CD1 mice and then mechanically dissociated with sterile Pasteur pipette into small aggregates and seeded into 35 mm culture dishes. All cultures were first left unchanged for 5-6 days and then replenished every 3-4 days. When the cell growth had reached around 80% confluency, retinal aggregates and debris were removed by media washes to form a purified cell monolayer. Cells were then exposed to the experimental conditions: (1) untreated control, (2) 1.0 mg/mL risuteganib, (3) 500 μM kainic acid (KA), and (4) 1.0 mg/mL risuteganib for 24 hours before 500 μM kainic acid exposure. 48 hours after kainic acid treatment, dead and live cell numbers were measured using Trypan blue exclusion assay on a hemocytometer.
# [6] = Trypan blue viability of primary mouse retinal neuron cells exposed to kainic acid; format: cell-based, CD1 mice; settings: CD1, mouse; 500 μM kainic acid alone, 8 hours; read-out: Reduction of cell viability
# Description: Purpose: Investigate neuroprotective properties of risuteganib in primary mouse retinal neuron cells exposed to kainic acid, a neuroexcitatory compound that activates glutamate receptors, resulting in overstimulation and cell death.
# Methods: Fresh retina were collected from CD1 mice and then mechanically dissociated with sterile Pasteur pipette. Cell suspensions were then dispensed into petri dish and incubated for 6 hours. Cells were then exposed to the experimental conditions: (1) untreated control, (2) 1.0 mg/mL risuteganib, (3) 500 μM kainic acid (KA), and (4) 1.0 mg/mL risuteganib for 24 hours before 500 μM kainic acid exposure. 8 hours after kainic acid treatment, dead and live cell numbers were measured using Trypan blue exclusion assay on a hemocytometer.
# [7] = system: neovascularization in mice (CNV); settings: reproduced from US 2019/0062371; cited from earlier work
# [8] = system: human retinal Müller cells (MIO-M1); test: Reactive oxygen species level in human Müller cells (MIO-M1); format: cell-based; settings: 1× concentration (clinical dose), 24 hours
# Description: Purpose: To determine the effects of risuteganib and anti-VEGF drugs on reactive oxygen species (ROS) levels in cultured human retinal Müller cells (MIO-M1). Elevated ROS levels can disrupt normal cellular functions, leading to reduced cell health and possible cell death.
# Methods: The immortalized human retinal Müller cell line (MIO-M1) was obtained from the Department of Cell Biology of the University College, London. Cells were cultured in Dulbecco's Modified Eagle's Medium (DMEM) and plated in 24-well plates for 24 hours before treatment with 1× concentration of 1 mg/50 μL ALG-1001, ranibizumab, bevacizumab, or aflibercept. Dosage was based on clinical dose of each compound. The experiments were repeated 3 times with 6 replicates each. After 24 hours drug treatment, ROS level was measured using the fluorescent dye 2′,7′-dichlorodihydrofluorescein diacetate. The signals were read using the Biotek Synergy HT plate reader with EX filter in 482 nm and EM filter in 520 nm. Results were normalized to untreated control as 100%. Statistical analysis was performed in GraphPad Prism software program.
# [9] = system: human retinal Müller cells (MIO-M1); test: MTT cell viability of human Müller cells (MIO-M1); format: cell-based; settings: 1× concentration (clinical dose), 24 hours, vs untreated (FIG. 18)
# Description: Purpose: To determine the effects of risuteganib and anti-VEGF drugs on the cell viability of cultured human retinal Müller cells (MIO-M1).
# Methods: The immortalized human retinal Müller cell line (MIO-M1) was obtained from the Department of Cell Biology of the University College, London. Cells were cultured in Dulbecco's Modified Eagle's Medium (DMEM) and plated in 96-well plates for 24 hours before treatment with 0.5×, 1× or 2× concentrations of 1 mg/50 μL risuteganib, or 1× of ranibizumab, bevacizumab or aflibercept. Dosage was based on clinical dose of each compound. The experiments were repeated 3 times with 7-8 replicates each. After 24 hours of drug treatment, MTT NAD(P)H-dependent colorimetric assay was used to assess the number of viable cells present in the cultures. Absorbance ratios were normalized to untreated control as 100%. Statistical analysis was performed in GraphPad Prism software program.
# [10] = system: human retinal Müller cells (MIO-M1); test: Mitochondrial membrane potential (JC-1) in human Müller cells (MIO-M1); format: cell-based; settings: 1× concentration (clinical dose), 24 hours, vs untreated control
# Description: Purpose: To determine the effects of risuteganib on the mitochondrial membrane potential (ΔΨm) in cultured human retinal Müller cells (MIO-M1). Loss of ΔΨm is a marker for early cell death.
# Methods: The immortalized human retinal Müller cell line (MIO-M1) was obtained from the Department of Cell Biology of the University College, London. Cells were cultured in Dulbecco's Modified Eagle's Medium (DMEM) and plated in 24-well plates for 24 hours before treatment with 1× concentration of 1 mg/50 μL risuteganib, ranibizumab, bevacizumab, or aflibercept. Dosage was based on clinical dose of each compound. The experiments were repeated 3 times with 6 replicates each. After 24 hours drug treatment, the ΔΨm was measured using the JC-1 kit, a cationic dye that fluoresces red within the mitochondria of healthy, live cells. In the stressed or apoptotic cells, the mitochondrial membrane potential collapses and the cationic dye fluoresces green. First, cells were rinsed with fresh media and then incubated with the JC-1 reagent for 15 minutes at 37 degrees C. The dyes were then removed, and phosphate buffered saline was added to each well. The Red fluorescence (live cells) was read at EX 550 nm and EM 600 nm. The Green fluorescence (apoptotic cells) was read at EX 483 nm and EM 535 nm. The changes in ΔΨm were calculated by the ratio of red to green fluorescence. […]
molecule,measurement,setting,value
"OO [H2O2, hydrogen peroxide, reference compound]","cytotoxicity at 8 h, 100 μM",[1],22%
"Oc1ccc(O)cc1 [HQ, hydroquinone, reference compound]",Change in Δψm compared to untreated cells,[2],−53%
same,Change in cell viability compared to untreated cells,[3],−82%
same,Increase in ROS levels compared to untreated cells,[4],78%
"C=C(C)[C@H]1CN[C@H](C(=O)O)[C@H]1CC(=O)O [kainic acid, reference compound]","cytotoxicity at 48 h, 500 μM",[5],32%
same,"cytotoxicity at 8 h, 500 μM",[6],42%
R - G - Cys(acid)•TFA [Test Compound 1],Activity At Dose Tested,[7],Active
same,Mean % Reduction of Retinal Neovascularization In ROP Model,[7],49 - FIG. 11%
R- G - Cys(acid)•Acetate [Test Compound 2],Activity At Dose Tested,[7],Active
same,Mean % Reduction of Retinal Neovascularization In ROP Model,[7],56 - FIG. 11%
aflibercept [reference compound],Change in ROS level compared to untreated control,[8],29%
same,"Cell viability (MTT), in words",[9],decreased cell viability
same,"Mitochondrial membrane potential (ΔΨm), in words",[10],decreased ΔΨm
bevacizumab [reference compound],Change in ROS level compared to untreated control,[8],24%
same,"Cell viability (MTT), in words",[9],decreased cell viability
B1,Change in ROS level compared to untreated control,[8],37%
same,"Cell viability (MTT), in words",[9],decreased cell viability
